Laboratory results published in doi:10.1101/844506v1 (biorxiv, 2019).

Target: B8CYA8 (β-glucosidase from Halothermothrix orenii) (Halothermothrix orenii, UniProt B8CYA8)
Assay: melting temperature shift
Type: binding
Settings: 0.5 M glucose

Sequence of B8CYA8 (β-glucosidase from Halothermothrix orenii) (B8CYA8 1-451): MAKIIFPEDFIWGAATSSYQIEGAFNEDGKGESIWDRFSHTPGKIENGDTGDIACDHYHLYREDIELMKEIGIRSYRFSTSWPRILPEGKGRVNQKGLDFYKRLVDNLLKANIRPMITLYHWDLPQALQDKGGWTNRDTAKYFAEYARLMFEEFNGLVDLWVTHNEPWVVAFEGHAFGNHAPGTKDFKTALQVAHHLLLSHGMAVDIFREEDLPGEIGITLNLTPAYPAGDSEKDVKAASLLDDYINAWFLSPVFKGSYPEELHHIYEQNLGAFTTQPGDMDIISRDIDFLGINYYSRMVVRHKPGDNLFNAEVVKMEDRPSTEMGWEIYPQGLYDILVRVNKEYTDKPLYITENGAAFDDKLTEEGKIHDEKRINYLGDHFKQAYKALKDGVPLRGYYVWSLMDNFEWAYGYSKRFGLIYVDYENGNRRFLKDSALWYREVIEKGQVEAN

- increase in melting temperature: 4-5 °C
SMILES: OC[C@H]1OC(O)[C@H](O)[C@@H](O)[C@@H]1O (stereo partly shown) [glucose]
